Data reported in ChEMBL document CHEMBL4177572, “Recent advances in JAK3 inhibition: Isoform selectivity by covalent cysteine targeting” (Bioorg Med Chem Lett, 2017).

Key:
[1] = biological target: T1, Tyrosine-protein kinase JAK3 (Homo sapiens) (UniProt P52333); assay: Binding affinity to JAK3 (unknown origin) assessed as dissociation half life
T1 sequence (whole entry): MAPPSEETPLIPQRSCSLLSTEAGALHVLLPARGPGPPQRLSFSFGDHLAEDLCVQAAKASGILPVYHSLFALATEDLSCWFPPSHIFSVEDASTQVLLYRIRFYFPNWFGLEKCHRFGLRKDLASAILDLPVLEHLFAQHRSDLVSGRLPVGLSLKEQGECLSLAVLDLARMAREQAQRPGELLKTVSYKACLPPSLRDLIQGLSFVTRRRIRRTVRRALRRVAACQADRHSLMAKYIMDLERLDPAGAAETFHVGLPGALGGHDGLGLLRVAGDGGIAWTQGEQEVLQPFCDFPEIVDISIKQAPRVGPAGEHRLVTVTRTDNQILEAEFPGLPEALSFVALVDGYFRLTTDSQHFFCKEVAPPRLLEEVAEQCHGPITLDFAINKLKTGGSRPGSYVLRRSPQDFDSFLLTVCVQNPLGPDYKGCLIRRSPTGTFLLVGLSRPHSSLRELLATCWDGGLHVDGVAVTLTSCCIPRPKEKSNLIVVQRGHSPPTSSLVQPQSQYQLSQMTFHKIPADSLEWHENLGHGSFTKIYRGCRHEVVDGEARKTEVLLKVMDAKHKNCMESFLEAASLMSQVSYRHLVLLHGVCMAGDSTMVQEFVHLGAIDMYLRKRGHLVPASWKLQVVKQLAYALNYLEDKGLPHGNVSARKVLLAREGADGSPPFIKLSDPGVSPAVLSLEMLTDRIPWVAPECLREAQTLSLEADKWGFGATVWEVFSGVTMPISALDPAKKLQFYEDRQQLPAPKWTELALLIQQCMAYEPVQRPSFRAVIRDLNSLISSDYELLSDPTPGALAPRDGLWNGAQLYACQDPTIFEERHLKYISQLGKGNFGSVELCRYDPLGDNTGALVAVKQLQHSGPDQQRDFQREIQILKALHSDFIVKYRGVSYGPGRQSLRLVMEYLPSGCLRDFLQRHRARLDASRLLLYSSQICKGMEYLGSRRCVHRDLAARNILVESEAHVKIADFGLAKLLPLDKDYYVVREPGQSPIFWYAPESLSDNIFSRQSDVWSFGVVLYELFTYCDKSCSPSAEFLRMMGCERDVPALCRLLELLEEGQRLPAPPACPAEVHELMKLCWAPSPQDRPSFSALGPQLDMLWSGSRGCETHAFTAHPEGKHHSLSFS

Homo sapiens [2] = organism: Homo sapiens; assay: Selectivity ratio of IC50 for TYK2 (unknown origin) to IC50 for JAK3 (unknown origin)
Homo sapiens [3] = organism: Homo sapiens; assay: Selectivity ratio of IC50 for JAK2 (unknown origin) to IC50 for JAK3 (unknown origin)
Homo sapiens [4] = organism: Homo sapiens; assay: Selectivity ratio of IC50 for JAK1 (unknown origin) to IC50 for JAK3 (unknown origin)
JAK3/JAK1 [5] = biological target: T2, JAK3/JAK1 (Homo sapiens, UniProt P23458+P52333); assay: Inhibition of JAK1/JAK3 in human PBMC CD3+/CD8+ T cells assessed as reduction in IL7-stimulated STAT5 phosphorylation
T2 sequence (P23458 whole entry, one chain of several): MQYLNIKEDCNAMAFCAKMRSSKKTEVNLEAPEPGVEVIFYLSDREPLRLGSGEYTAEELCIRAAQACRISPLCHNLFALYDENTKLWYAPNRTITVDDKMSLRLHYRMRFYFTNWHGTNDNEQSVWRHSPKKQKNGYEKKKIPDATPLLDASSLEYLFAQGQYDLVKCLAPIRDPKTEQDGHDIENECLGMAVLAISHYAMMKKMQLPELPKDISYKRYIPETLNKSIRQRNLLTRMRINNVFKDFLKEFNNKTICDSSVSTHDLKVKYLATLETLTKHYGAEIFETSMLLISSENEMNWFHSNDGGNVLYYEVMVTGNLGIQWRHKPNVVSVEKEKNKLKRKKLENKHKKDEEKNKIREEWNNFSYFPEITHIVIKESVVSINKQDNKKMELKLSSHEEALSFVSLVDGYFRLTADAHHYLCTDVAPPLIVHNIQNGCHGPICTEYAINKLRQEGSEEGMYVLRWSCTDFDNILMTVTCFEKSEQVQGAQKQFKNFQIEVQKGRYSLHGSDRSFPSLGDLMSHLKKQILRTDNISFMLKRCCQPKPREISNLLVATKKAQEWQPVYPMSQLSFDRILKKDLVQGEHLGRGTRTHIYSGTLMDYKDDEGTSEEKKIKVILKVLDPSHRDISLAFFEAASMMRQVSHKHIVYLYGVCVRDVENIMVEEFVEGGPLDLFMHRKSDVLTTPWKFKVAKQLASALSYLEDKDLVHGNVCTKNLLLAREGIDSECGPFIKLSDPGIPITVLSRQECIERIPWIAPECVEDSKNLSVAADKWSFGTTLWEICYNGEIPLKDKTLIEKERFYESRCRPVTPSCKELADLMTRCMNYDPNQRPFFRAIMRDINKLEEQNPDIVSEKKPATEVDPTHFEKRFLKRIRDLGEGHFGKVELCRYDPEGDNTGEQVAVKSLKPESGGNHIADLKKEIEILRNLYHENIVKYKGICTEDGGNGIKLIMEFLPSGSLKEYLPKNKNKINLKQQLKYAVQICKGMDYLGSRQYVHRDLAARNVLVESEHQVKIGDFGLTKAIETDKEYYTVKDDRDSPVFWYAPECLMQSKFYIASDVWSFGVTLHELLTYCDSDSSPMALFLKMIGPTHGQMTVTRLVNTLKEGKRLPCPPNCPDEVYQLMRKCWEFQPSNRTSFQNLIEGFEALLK

[6] = Half life in rat; assay type: ADME, organism-based; details: in vivo
[7] = biological target: Tyrosine-protein kinase JAK1/JAK3 (Mus musculus, UniProt P52332+Q62137); assay: Inhibition of JAK3/JAK1 in mouse CTLL-2 cells assessed as reduction in IL2-stimulated STAT5 phosphorylation; assay type: cell-based
JAK3/JAK1 [8] = biological target: T2, JAK3/JAK1; assay: Inhibition of JAK1/JAK3 in human whole blood CD3+/CD4+ T cells assessed as reduction in IL7-stimulated STAT5 phosphorylation
[9] = biological target: Tyrosine-protein kinase JAK2 (Homo sapiens, UniProt O60674); assay: Time-dependent inhibition of recombinant human N-terminal His-tagged JAK2 (826 to 1132 residues) expressed in sf21 cells using biotinylated peptide substrate after 1 hr by DELFIA
Tyrosine-protein kinase JAK2, sequence (O60674 whole entry, the tested form may be a part): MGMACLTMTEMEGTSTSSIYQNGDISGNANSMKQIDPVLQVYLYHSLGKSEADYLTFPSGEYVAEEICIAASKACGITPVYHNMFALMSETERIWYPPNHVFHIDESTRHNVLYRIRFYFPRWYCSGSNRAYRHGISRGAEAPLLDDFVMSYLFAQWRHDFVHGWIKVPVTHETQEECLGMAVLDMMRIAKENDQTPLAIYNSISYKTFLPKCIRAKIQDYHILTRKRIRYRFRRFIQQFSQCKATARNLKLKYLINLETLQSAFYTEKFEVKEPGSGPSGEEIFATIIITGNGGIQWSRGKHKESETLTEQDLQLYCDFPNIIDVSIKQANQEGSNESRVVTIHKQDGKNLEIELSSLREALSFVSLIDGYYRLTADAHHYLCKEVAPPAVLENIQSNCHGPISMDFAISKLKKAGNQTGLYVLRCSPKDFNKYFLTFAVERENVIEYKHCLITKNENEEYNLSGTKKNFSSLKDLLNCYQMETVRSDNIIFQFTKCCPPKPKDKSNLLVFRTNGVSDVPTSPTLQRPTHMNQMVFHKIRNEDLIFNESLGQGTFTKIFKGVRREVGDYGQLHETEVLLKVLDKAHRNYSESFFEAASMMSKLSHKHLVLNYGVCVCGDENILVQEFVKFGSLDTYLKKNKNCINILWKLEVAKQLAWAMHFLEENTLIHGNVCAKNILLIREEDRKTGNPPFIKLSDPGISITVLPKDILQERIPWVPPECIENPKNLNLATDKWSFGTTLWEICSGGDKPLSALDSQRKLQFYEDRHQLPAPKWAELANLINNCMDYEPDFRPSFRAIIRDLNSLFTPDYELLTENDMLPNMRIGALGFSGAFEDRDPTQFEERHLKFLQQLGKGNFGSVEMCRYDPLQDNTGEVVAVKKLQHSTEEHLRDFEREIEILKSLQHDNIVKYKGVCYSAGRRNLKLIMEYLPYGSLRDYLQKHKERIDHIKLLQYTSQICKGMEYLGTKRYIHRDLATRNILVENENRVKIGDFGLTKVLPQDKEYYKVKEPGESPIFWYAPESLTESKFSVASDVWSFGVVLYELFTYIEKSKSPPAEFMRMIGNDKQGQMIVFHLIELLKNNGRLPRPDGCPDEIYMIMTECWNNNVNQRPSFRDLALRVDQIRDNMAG

## CN(C)C(=O)/C(C#N)=C/c1ccc(Nc2cnc3[nH]cc(C(=O)C(C)(C)C)c3n2)cc1
[1]
  T1/2: 9 h

## c1nc(-c2cn(CC3CO3)nn2)c2cc[nH]c2n1 (centres undefined)
Homo sapiens [2]
  Ratio IC50: 160
Homo sapiens [3]
  Ratio IC50: 70
Homo sapiens [4]
  Ratio IC50: 70

## C=C(C)C(=O)Nc1cccc(-c2ncnc3[nH]cc(C(=O)OCC)c23)c1
JAK3/JAK1 [5]
  IC50: 280 nM
[6]
  half-life: 0.3 h
[7]
  IC50: 70 nM
JAK3/JAK1 [8]
  IC50: 5100 nM

## C=CC(=O)Nc1ccc2ncn(-c3cncc(NC(C)(C)C)n3)c2c1
[9]
  IC50: 40 nM
